The experiment deals with Bromodomain-containing protein 4 (Homo sapiens, UniProt O60885). Nature of the experiment: In Vitro Enzyme Inhibition Assay. Here is the method: His-tagged BRD4 was cloned, expressed and purified to homogeneity. BRD4 binding and inhibition was assessed by monitoring the interaction of biotinylated H4-tetraacetyl peptide (AnaSpec, H4K5/8/12/16(Ac), biotin-labeled) with the target using the AlphaScreen technology ([…]). […] After 20 min incubation at room temp, Alpha streptavidin donor beads and Nickel Chelate acceptor beads were added to a final concentration of 5 μg/mL.

One may read the IC50 as the concentration that gives 50% inhibition. Low readings indicate inhibition by little substance, high ones a need for much substance. Turning to `Cn1cc(-c2cccc(S(O)(O)NC3CC3)c2)c2ccccc2c1=O` [US10941160, Example 6], the 50% inhibitory concentration (IC50) entry is “in the range around 2750 nM”.
On to `COc1ccc(-c2cn(C)c(=O)c3ccccc23)cc1S(N)(O)O` [US10941160, Example 16], for which the half-inhibitory concentration (IC50) result is “in the range around 2750 nM”.
For `CCNS(O)(O)c1cccc(-c2cn(C)c(=O)c3cnccc23)c1` [US10941160, Example 53], the half-maximal inhibitory concentration (IC50) result was “in the range around 2750 nM”.
With `COc1ccc(-c2cn(C)c(=O)c3cnccc23)cc1S(O)(O)NCc1ccccc1` [US10941160, Example 54] the figure was more than 5000 nM; with `Cn1cc(-c2cccc(S(N)(O)O)c2)c2ccncc2c1=O` [US10941160, Example 55], more than 5000 nM; with `COc1ccc(-c2cn(C)c(=O)c3cnccc23)cc1S(N)(O)O` [US10941160, Example 56], more than 5000 nM.
Take `CCNS(O)(O)c1cccc(-c2cn(C)c(=O)c3cc(F)ccc23)c1` [US10941160, Example 59]: the 50% inhibitory concentration (IC50) entry is “in the range around 2750 nM”.
The result for `Cn1cc(-c2cccc(S(N)(O)O)c2)c2ccc(F)cc2c1=O` [US10941160, Example 61] reads less than 500 nM.
Regarding `CCS(O)(O)c1ccc(O)c(-c2cn(C)c(=O)c3ccc(-c4cnn(C)c4)cc23)c1` [US10941160, Example 80], the IC50 was less than 500 nM.
For the compound `CCS(O)(O)c1ccc(OCC2CC2)c(-c2cn(C)c(=O)c3ccc(-c4cnn(C)c4)cc23)c1` [US10941160, Example 82], the half-inhibitory concentration (IC50) is less than 500 nM.
The compound `CCS(O)(O)c1cccc(-c2cn(C)c(=O)c(N)n2)c1` [US10941160, Example 105] yielded an IC50 of more than 5000 nM.
`CCS(O)(O)c1cccc(-c2cc(N)c(=O)n(C)c2)c1` [US10941160, Example 108] showed a concentration for half-maximal inhibition (IC50) of more than 5000 nM.
Consider `CCOc1ccc(S(N)(O)O)cc1-c1ccc(=O)n(C)c1` [US10941160, Example 117], for which the IC50 was less than 500 nM.
Turning to `Cn1cc(-c2cc(S(N)(O)O)ccc2Oc2ccc(F)cc2F)ccc1=O` [US10941160, Example 118], the 50% inhibitory concentration (IC50) was less than 500 nM.
For the compound `CCS(O)(O)c1ccc(Oc2ccc(F)cc2F)c(-c2cc(F)c(=O)n(C)c2)c1` [US10941160, Example 121], the half-maximal inhibitory concentration (IC50) is less than 500 nM.
The compound `CCS(O)(O)c1cccc(-c2cn(C)c(=O)c3ccncc23)c1` [US10941160, Example 126] had an IC50 of more than 5000 nM.
With `CCS(O)(O)c1cccc(-c2cn(C)c(=O)c3cncn23)c1` [US10941160, Example 133] the figure was more than 5000 nM; with `CCS(O)(O)c1ccc(OCC2CC2)c(-c2cn(C)c(=O)c3ccccc23)c1` [US10941160, Example 135], less than 500 nM.
Consider `Cn1cc(-c2nc(N3CCC[SH]3(=O)O)ncc2OCC2CC2)c2ccccc2c1=O` [US10941160, Example 156], for which the IC50 was less than 500 nM.
The result for `CCS(O)(O)c1ccc(OCC2CC2)c(-c2cn(C)c(=O)c3ccc(F)cc23)c1` [US10941160, Example 174] reads less than 500 nM.
`CC#CCOc1ccc(S(O)(O)CC)cc1-c1cn(C)c(=O)c2ccccc12` [US10941160, Example 185] had an IC50 of less than 500 nM.
The compound `CCS(O)(O)c1ccc(NCC2CC2)c(-c2cn(C)c(=O)c3ccccc23)c1` [US10941160, Example 193] gave a concentration for half-maximal inhibition (IC50) of less than 500 nM.
With `CCS(O)(O)c1ccc(NCC2CC2)c(-c2cn(C)c(=O)c3cc(F)ccc23)c1` [US10941160, Example 195] the figure was less than 500 nM; with `CCS(O)(O)c1ccc(OCC2CC2)c(-c2cn(C)c(=O)c3ccccc23)n1` [US10941160, Example 206], less than 500 nM.
In turn, `COc1ccc(S(O)(O)CCO)cc1-c1cn(C)c(=O)c2ccc(-c3cnn(C)c3)cc12` [US10941160, Example 208] returned a 50% inhibitory concentration (IC50) of less than 500 nM.
As for `CCS(O)(O)c1ccc(OC)c(-c2cn(C)c(=O)c3ccc(-c4cn[nH]c4)cc23)c1` [US10941160, Example 210], the IC50 is less than 500 nM.
In turn, `CCS(O)(O)c1ccc(OCC2CC2)c(-c2cn(C)c(=O)c3c2CCCC3)c1` [US10941160, Example 219] yielded an IC50 of less than 500 nM.
The compound `CCCOc1ccc(S(O)(O)CC)cc1-c1cn(C)c(=O)c2cnc(-c3cnn(C)c3)nc12` [US10941160, Example 225] returned a half-maximal inhibitory concentration (IC50) of less than 500 nM.
With `CCS(O)(O)c1ccc(OCC2CC2)c(-c2cn(C)c(=O)c3cnc(-c4cnn(C)c4)nc23)c1` [US10941160, Example 226] the figure was less than 500 nM; with `CCOc1ccc(S(O)(O)CC)cc1-c1cn(C)c(=O)c2cnc(-c3cnn(C)c3)nc12` [US10941160, Example 227], less than 500 nM.
The compound `CCS(O)(O)c1ccc(OCC2CC2)c(-c2cn(C)c(=O)c3cncnc23)c1` [US10941160, Example 232] gave an IC50 of less than 500 nM.
With `CCS(O)(O)c1ccc(OCC2CC2)c(-c2cc(C)c(=O)n(C3CC3)c2)c1` [US10941160, Example 251] the figure was less than 500 nM; with `CCS(O)(O)c1ccc(OCC2CC2)c(-c2cn(C)c(=O)c3occc23)c1` [US10941160, Example 252], less than 500 nM; with `CCS(O)(O)c1ccc(OCC2CC2)c(-c2cn(C)c(=O)c3sc(C(N)=O)cc23)c1` [US10941160, Example 265], less than 500 nM.
`CCS(O)(O)c1ccc(OCC2CC2)c(-c2cn(C)c(=O)c3oc(C)cc23)c1` [US10941160, Example 270] registered a 50% inhibitory concentration (IC50) of less than 500 nM.
In the case of `CCS(O)(O)c1ccc(OCC2CC2)c(-c2cc(Cl)c(=O)n(C)c2)c1` [US10941160, Example 272], the IC50 was less than 500 nM.
Consider `CCS(O)(O)c1ccc(OCC2CC2)c(-c2cc(F)c(=O)n(C)c2)c1` [US10941160, Example 274], for which the IC50 is less than 500 nM.
Take `CCS(O)(O)c1ccc(OCC2CC2)c(-c2cc(C3CC3)c(=O)n(C)c2)c1` [US10941160, Example 280]: the IC50 is less than 500 nM.
In turn, `C#Cc1cc(-c2cc(S(O)(O)CC)ccc2OCC2CC2)cn(C)c1=O` [US10941160, Example 284] had an IC50 of less than 500 nM.
`CCS(O)(O)c1ccc(OCC2CC2)c(-c2cc(OC(F)F)c(=O)n(C)c2)c1` [US10941160, Example 287]: the IC50 is less than 500 nM.
`CCS(O)(O)c1ccc(OCC2CC2)c(-c2cc(OCC(F)(F)F)c(=O)n(C)c2)c1` [US10941160, Example 288] had an IC50 of less than 500 nM.
For the compound `CCCCc1cnc(NS(O)(O)CC)nc1-c1cc(C)c(=O)n(C)c1` [US10941160, Example 310], the IC50 is less than 500 nM.
For `CCS(O)(O)c1cnc(OCC2CC2)c(-c2cn(C)c(=O)c3ccccc23)c1` [US10941160, Example 322], the IC50 is less than 500 nM.
The compound `CCS(O)(O)Nc1cc(Oc2ccc(F)cc2F)cc(-c2cc(C)c(=O)n(C)c2)c1` [US10941160, Example 342] yielded a 50% inhibitory concentration (IC50) of less than 500 nM.
With `CCCCc1cnc(NS(O)(O)CC)nc1-c1cc(OC)c(=O)n(C)c1` [US10941160, Example 362], the IC50 is less than 500 nM.
`CC(C)S(O)(O)c1ccc(OCC2CC2)c(-c2cn(C)c(=O)c3ccccc23)c1` [US10941160, Example 364] had an IC50 of less than 500 nM.
With `CCS(O)(O)c1ccc(OCC2CC2)c(-c2cn(C)c(=O)c3c2OCCN3)c1` [US10941160, Example 366], the IC50 was less than 500 nM.
`CCS(O)(O)c1ccc(OCC2CC2)c(-c2cn(C)c(=O)c3cncn23)c1` [US10941160, Example 368] returned a half-inhibitory concentration (IC50) of less than 500 nM.
As for `CCS(O)(O)c1ccc(OC2CCC(F)(F)CC2)c(-c2cn(C)c(=O)c3cncn23)c1` [US10941160, Example 373], the IC50 is less than 500 nM.
With `CCS(O)(O)c1ccc(OC2CCCC2)c(-c2cn(C)c(=O)c3cncn23)c1` [US10941160, Example 374], the IC50 was less than 500 nM.
With `CCS(O)(O)c1ccc(NCC2CC2)c(-c2cn(C)c(=O)c3cncn23)c1` [US10941160, Example 375], the concentration for half-maximal inhibition (IC50) was less than 500 nM.
In turn, `CCS(O)(O)c1ccc(Oc2ccc(F)cc2F)c(-c2cn(C)c(=O)c3cncn23)c1` [US10941160, Example 376] registered a half-inhibitory concentration (IC50) of less than 500 nM.
Take `CCS(O)(O)c1ccc(OCC2CC2)c(-c2cn(C)c(=O)c3ccoc23)c1` [US10941160, Example 378]: the IC50 was less than 500 nM.
Consider `CC#CCOc1ccc(S(O)(O)CC)cc1-c1cc(OC)c(=O)n(C)c1` [US10941160, Example 389], for which the half-maximal inhibitory concentration (IC50) was less than 500 nM.
`CCC#CCOc1ccc(S(O)(O)CC)cc1-c1cc(OC)c(=O)n(C)c1` [US10941160, Example 390]: the 50% inhibitory concentration (IC50) is less than 500 nM.
Turning to `CCS(O)(O)c1ccc(OCC#CC2CC2)c(-c2cc(OC)c(=O)n(C)c2)c1` [US10941160, Example 391], the 50% inhibitory concentration (IC50) is less than 500 nM.
Regarding `COc1ccc2c(=O)n(C)cc(-c3cc(S(O)(O)C(C)C)ccc3OCC3CC3)c2c1` [US10941160, Example 393], the half-inhibitory concentration (IC50) is less than 500 nM.
`Cc1cc(-c2cc(S(O)(O)C(C)C)ccc2OCC2CC2)cn(C)c1=O` [US10941160, Example 394] yielded an IC50 of less than 500 nM.
With `CCS(O)(O)Nc1cc(OCc2ccccc2)cc(-c2cc(C)c(=O)n(C)c2)c1` [US10941160, Example 395], the IC50 was less than 500 nM.
The compound `CCS(O)(O)c1ccc(Nc2ccc(F)cc2F)c(-c2cc(C)c(=O)n(C)c2)c1` [US10941160, Example 396] yielded a half-maximal inhibitory concentration (IC50) of less than 500 nM.
In turn, `CCS(O)(O)c1ccc(NC2CCC(F)(F)CC2)c(-c2cc(C)c(=O)n(C)c2)c1` [US10941160, Example 397] gave a half-maximal inhibitory concentration (IC50) of less than 500 nM.
With `CCS(O)(O)c1ccc(OCC2CC2)c(-c2cc(OC)c(=O)n(C)c2)c1` [US10941160, Example 399], the IC50 was less than 500 nM.
For the compound `CCS(O)(O)c1ccc(NCC2CC2)c(-c2cc(NC)c(=O)n(C)c2)c1` [US10941160, Example 408], the IC50 was less than 500 nM.
With `CCS(O)(O)c1ccc(OCC2CC2)c(-c2cc(NC)c(=O)n(C)c2)c1` [US10941160, Example 409] the figure was less than 500 nM; with `CCS(O)(O)Cc1ccc(OCC(F)(F)F)c(-c2cc(C)c(=O)n(C)c2)c1` [US10941160, Example 411], less than 500 nM.
The result for `CCS(O)(O)c1ccc(NCC2CC2)c(-c2cc(OC)c(=O)n(C)c2)c1` [US10941160, Example 414] reads less than 500 nM.

These data come from BindingDB's records for patent US10941160 (Celgene Quanticel Research, 2021).
